This is an account of results in ChEMBL document CHEMBL2401647, “High potency improvements to weak aryl uracil HCV polymerase inhibitor leads” (Bioorg Med Chem Lett, 2013).

Data set [1] deals with Hepatitis C virus. The data set is described as follows: Inhibition of Hepatitis C virus genotype 1b NS5B polymerase. Set-up: species or system Hepatitis C virus subtype 1b.
The subject of data set [2] is Hepatitis C virus. Put plainly: Antiviral activity against Hepatitis C virus genotype 1a infected in human HuH7 cells. Particulars: subtype 1a, Huh-7. It counts as functional, organism-based, Hepacivirus hominis.
The nature of data set [3]: Inhibition of Hepatitis C virus genotype 1a NS5B polymerase. Further details: species or system Hepatitis C virus subtype 1a.
Data set [4] deals with Hepatitis C virus. The data set is described as follows: Antiviral activity against Hepatitis C virus genotype 1b infected in human HuH7 cells. It counts as functional, organism-based, Hepacivirus hominis. Particulars: Huh-7.
Data set [5] is described as follows: Solubility of the compound. In kind it is physicochemical.
The nature of data set [6]: AUC in po dosed rat. It counts as ADME, organism-based. Particulars: plasma.
Data set [7] can be described thus: Half life in iv dosed rat. In kind it is ADME, organism-based. The conditions noted are these: in vivo.
Data set [8] is described as follows: Permeability of the compound. In kind it is ADME. The conditions noted are these: not told; read-out: permeability.
Data set [9] in a line: AUC in rat. Particulars: plasma. In kind it is ADME, organism-based.
Data set [10] in a line: Oral bioavailability in rat. In kind it is ADME, organism-based. The conditions noted are these: in vivo.
Data set [11] is described as follows: Cytotoxicity against human HuH7 cells. In kind it is cell-based. The conditions noted are these: Huh-7 cells, read-out: TD50 (the source's name).

Values after ≈ are worked out from the molar mass of the structure shown.

With `CC(C)(C)c1cc(N2CCC(=O)NC2=O)ccc1O`, the IC50 amounted to 23000 nM with Hepatitis C virus [1] and 71000 nM in data set [3]. In addition, the EC50 in the data set with Hepatitis C virus [2] and with Hepatitis C virus [4] was above 100000 nM throughout.

For `COc1ccc(N2CCC(=O)NC2=O)cc1C(C)(C)C`, the concentration in solution in data set [5] (solubility) came to 73 µM (≈ 20.2 µg/mL). For the same molecule, the concentration giving a half-maximal response (EC50) in the data set with Hepatitis C virus [2] and in the data set with Hepatitis C virus [4] was above 100000 nM each time. Further, the AUC in data set [6] was found to be 5570 ng·h/mL; in data set [9] it was 12400 ng·h/mL. For the same molecule, 26000 nM corresponded to half-maximal inhibition in [3] (IC50). In [7], this molecule showed a half-life of 228 min. In addition, the Papp in data set [8] amounted to 5.5 ×10⁻⁶ cm/s. Further, in [10], the bioavailability came out at 45%.

On to `COc1c(C(=O)Nc2ccc(NS(C)(=O)=O)cc2)cc(N2CCC(=O)NC2=O)cc1C(C)(C)C`, for which the IC50 amounted to 20 nM in the data set on Hepatitis C virus [1] and 10 nM in data set [3]. In data set [5], this molecule returned a solubility of 2 µM (≈ 0.977 µg/mL). Moreover, the EC50 was found to be 60 nM in the data set with Hepatitis C virus [2] and 20 nM in the data set on Hepatitis C virus [4]. Further, the exposure (AUC) turned out to be 50 ng·h/mL in [6] and 3380 ng·h/mL in data set [9]. Moreover, the half-life in data set [7] is 66 min. Also, the Papp in data set [8] was found to be 0.5 ×10⁻⁶ cm/s. In addition, in [10], the bioavailability was found to be 1.5%.

Turning to `CC(C)(C)c1cc(N2CCC(=O)NC2=O)cc(C(=O)Nc2ccccc2)c1O`, the IC50 amounted to 230 nM with Hepatitis C virus [1] and 4280 nM in data set [3]. The EC50 in the data set with Hepatitis C virus [2] worked out at 18600 nM; with Hepatitis C virus [4], 6310 nM.

For the molecule `COc1c(C(=O)Nc2ccccc2)cc(N2CCC(=O)NC2=O)cc1C(C)(C)C`, the values for the IC50 (with Hepatitis C virus [1]; in data set [3]) were 750 nM and 890 nM, respectively. In data set [5], this molecule returned a solubility of 12 µM (≈ 4.75 µg/mL). The values for the EC50 in the data set with Hepatitis C virus [2] and in the data set with Hepatitis C virus [4] were 3670 nM and 1030 nM, respectively. The AUC in data set [6] turned out to be 330 ng·h/mL; in [9], 2190 ng·h/mL. The same molecule showed a half-life in data set [7] of 30 min. In addition, the Papp in [8] was 1.4 ×10⁻⁶ cm/s. In data set [10], the bioavailability worked out at 15%.

`CC(C)(C)c1cc(N2CCC(=O)NC2=O)cc(C(=O)NCc2ccccc2)c1O`: the IC50 amounted to 940 nM in the data set with Hepatitis C virus [1] and 8590 nM in data set [3]. The EC50 in the data set on Hepatitis C virus [2] is 14200 nM; with Hepatitis C virus [4] it was 15300 nM.

On to `COc1c(C(=O)Nc2ccc(N)cc2)cc(N2CCC(=O)NC2=O)cc1C(C)(C)C`, for which the IC50 was 1240 nM with Hepatitis C virus [1] and 2060 nM in data set [3]. The EC50 was above 50000 nM in the data set on Hepatitis C virus [2] and 4240 nM with Hepatitis C virus [4].

Take `COc1c(C(=O)Nc2ccc(NC(C)=O)cc2)cc(N2CCC(=O)NC2=O)cc1C(C)(C)C`: the IC50 with Hepatitis C virus [1] came out at 5120 nM; in data set [3] it was 3420 nM.

Turning to `CC(C)(C)c1cc(N2CCC(=O)NC2=O)cc(C(=O)Nc2ccc(NS(C)(=O)=O)cc2)c1O`, the IC50 in the data set on Hepatitis C virus [1] amounted to 2 nM; in [3], 20 nM. Moreover, the half-maximal effective concentration (EC50) in the data set on Hepatitis C virus [2] came to 390 nM; in the data set with Hepatitis C virus [4], 50 nM.

Take `CC(C)(C)c1cc(N2CCC(=O)NC2=O)cc(C(=O)Nc2ccc(OS(C)(=O)=O)cc2)c1O`: the figures for the half-inhibitory concentration (IC50) (in the data set with Hepatitis C virus [1]; in [3]) were 30 nM and 180 nM, respectively. Moreover, the results for the EC50 in the data set on Hepatitis C virus [2] and in the data set with Hepatitis C virus [4] were 4650 nM and 1130 nM, respectively. In data set [11], the CC50 is above 50000 nM.

`COc1c(C(=O)Nc2ccc(OS(C)(=O)=O)cc2)cc(N2CCC(=O)NC2=O)cc1C(C)(C)C`: the IC50 with Hepatitis C virus [1] amounted to 1040 nM; in data set [3], 670 nM. The EC50 in the data set on Hepatitis C virus [2] was determined as 3400 nM; with Hepatitis C virus [4], 860 nM. In data set [11], the CC50 is above 50000 nM.

Regarding `CN(c1ccc(NC(=O)c2cc(N3CCC(=O)NC3=O)cc(C(C)(C)C)c2O)cc1)S(C)(=O)=O`, the IC50 with Hepatitis C virus [1] worked out at 30 nM; in data set [3] it was 460 nM. Also, the EC50 in the data set with Hepatitis C virus [2] came to 3550 nM; in the data set on Hepatitis C virus [4] it was 1040 nM. Also, the CC50 in data set [11] is above 50000 nM.

For the molecule `COc1c(C(=O)Nc2ccc(N(C)S(C)(=O)=O)cc2)cc(N2CCC(=O)NC2=O)cc1C(C)(C)C`, the IC50 in the data set on Hepatitis C virus [1] came to 830 nM; in data set [3] it was 770 nM. The EC50 with Hepatitis C virus [2] is 5490 nM; in the data set with Hepatitis C virus [4] it was 560 nM. For the same molecule, the CC50 in data set [11] is above 50000 nM.

As to `CC(C)(C)c1cc(N2CCC(=O)NC2=O)cc(C(=O)Nc2cccc(NS(C)(=O)=O)c2)c1O`, the IC50 was determined as 50 nM in the data set on Hepatitis C virus [1] and 360 nM in [3]. In addition, the results for the EC50 in the data set with Hepatitis C virus [2] and in the data set on Hepatitis C virus [4] were 27800 nM and 7560 nM, respectively. In addition, in data set [11], the CC50 was above 50000 nM.

As to `CC(C)(C)c1cc(-n2ccc(=O)[nH]c2=O)cc(C(=O)Nc2ccc(NS(C)(=O)=O)cc2)c1O`, the IC50 with Hepatitis C virus [1] was found to be 10 nM; in data set [3], 38 nM. The EC50 in the data set with Hepatitis C virus [2] turned out to be 590 nM; in the data set with Hepatitis C virus [4] it was 94 nM.

Turning to `COc1c(C(=O)Nc2ccc(NS(C)(=O)=O)cc2)cc(-n2ccc(=O)[nH]c2=O)cc1C(C)(C)C`, the IC50 with Hepatitis C virus [1] worked out at 30 nM; in data set [3], 20 nM. This molecule also gave a solubility in [5] of 13 µM (≈ 6.33 µg/mL). For the same molecule, the results for the EC50 in the data set with Hepatitis C virus [2] and in the data set on Hepatitis C virus [4] were 270 nM and 50 nM, respectively. Moreover, the Papp in data set [8] stood at 0.2 ×10⁻⁶ cm/s.

Turning to `CC(C)(C)c1cc(N2CCC(=O)NC2=O)cc(C(=O)Nc2ccc(NS(=O)(=O)CCN3CCOCC3)cc2)c1O`, the figures for the IC50 (with Hepatitis C virus [1]; in data set [3]) were 7 nM and 50 nM, respectively. In addition, the EC50 in the data set with Hepatitis C virus [2] worked out at 1960 nM; in the data set on Hepatitis C virus [4] it was 420 nM.

Consider `COc1c(C(=O)Nc2ccc(NS(=O)(=O)CCN3CCOCC3)cc2)cc(N2CCC(=O)NC2=O)cc1C(C)(C)C`, for which the half-maximal inhibitory concentration (IC50) stood at 310 nM with Hepatitis C virus [1] and 110 nM in [3]. In data set [5], this molecule displayed a solubility of 74 µM (≈ 43.5 µg/mL). Further, the EC50 worked out at 5310 nM in the data set on Hepatitis C virus [2] and 580 nM in the data set with Hepatitis C virus [4]. Also, the half-life in [7] is 36 min. The Papp in data set [8] turned out to be 0.1 ×10⁻⁶ cm/s. The molecule further came in with an AUC in data set [9] of 2540 ng·h/mL. This molecule also gave a bioavailability in data set [10] of 0%.

As usually defined, the IC50 is the concentration that inhibits the measured activity by half. Read a low IC50 as higher potency. For orientation: EC50 means the concentration at which the effect is half-maximal. As a reminder, the solubility is the dissolved amount per volume that the medium holds. Read a high solubility as much dissolved substance. By AUC is commonly meant concentration integrated over time. Higher therefore signals high exposure. As usually defined, the half-life is how long it takes for the measured level to halve. A higher half-life goes with slow decline. As usually defined, the bioavailability is dose-corrected exposure relative to a reference, in per cent.
